Experimental data from patent publication US6479531B1, “Gastrin and cholecystokinin receptor ligands” (James Black Foundation Limited, priority 1998, dated 2002).

What was measured:
[1] = molecular target: T1, gastrin receptor (Rattus norvegicus, UniProt P30553); experiment: gastrin antagonist activity in immature rat stomach assay (pentagastrin dose-response, acid secretion); settings: isolated immature rat stomach, cumulative pentagastrin dose-response curves, read-out: Gastrin pKb (converted)
T1 construct: The stomach was excised and flushed with ca. 1 ml of unbuffered physiological saline solution; from tissue; host or cells: isolated whole stomach of immature rats (ca. 21 days old)
T1 sequence (P30553 1-452): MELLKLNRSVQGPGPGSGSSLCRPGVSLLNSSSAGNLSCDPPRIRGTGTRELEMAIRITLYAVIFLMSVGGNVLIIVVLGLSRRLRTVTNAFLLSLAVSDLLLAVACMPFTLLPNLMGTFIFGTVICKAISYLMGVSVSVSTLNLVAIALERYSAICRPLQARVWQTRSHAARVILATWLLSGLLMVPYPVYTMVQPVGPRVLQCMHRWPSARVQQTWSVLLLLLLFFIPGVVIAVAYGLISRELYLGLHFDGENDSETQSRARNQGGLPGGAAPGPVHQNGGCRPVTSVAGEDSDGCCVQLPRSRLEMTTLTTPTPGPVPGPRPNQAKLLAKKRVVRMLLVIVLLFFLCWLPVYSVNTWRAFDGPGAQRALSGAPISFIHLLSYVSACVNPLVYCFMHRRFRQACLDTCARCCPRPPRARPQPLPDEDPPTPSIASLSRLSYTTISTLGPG
How it was run: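 Isolated, lumen-perfused stomach from immature rats (33-50 g, ca. 21 days) in a 37° organ bath with 3×10^−8 M 5-methylfurmethide, gassed 95% O2/5% CO2. Compound added serosally after 120 min stabilisation; cumulative pentagastrin dose-response curves begun 60 min later, acid secretion followed by perfusate pH.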

[2] = molecular target: T2, CCKA receptor (Cavia porcellus, UniProt Q63931); experiment: CCKA binding assay in guinea-pig pancreas membranes; settings: [125I]-CCK8(S) 200 pM, with 0.375 μM PD134,308, read-out: CCKA pKi (converted)
T2 construct: The pancreatata were removed from male guineau-pigs (200-300 g; Dunkin Hartley); from tissue; host or cells: pancreas membranes of male Dunkin Hartley guinea-pigs
T2 sequence (Q63931 1-430): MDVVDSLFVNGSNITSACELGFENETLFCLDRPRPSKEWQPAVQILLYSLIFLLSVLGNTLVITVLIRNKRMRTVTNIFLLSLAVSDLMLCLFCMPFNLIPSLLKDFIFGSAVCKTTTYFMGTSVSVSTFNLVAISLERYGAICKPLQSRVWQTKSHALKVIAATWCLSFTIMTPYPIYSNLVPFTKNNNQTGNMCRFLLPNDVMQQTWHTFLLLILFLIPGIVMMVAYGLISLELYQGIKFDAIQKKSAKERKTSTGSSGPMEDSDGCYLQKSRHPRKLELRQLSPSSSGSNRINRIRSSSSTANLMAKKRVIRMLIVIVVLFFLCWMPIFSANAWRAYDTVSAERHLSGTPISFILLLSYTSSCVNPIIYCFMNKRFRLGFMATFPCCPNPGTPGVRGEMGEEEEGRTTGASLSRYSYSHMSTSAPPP
Method: The compounds of certain examples were also tested in a CCKA binding assay as follows:
The pancreatata were removed from male guineau-pigs (200-300 g; Dunkin Hartley) and placed in ice-cold HEPES buffer (pH 7.2 @ 21±3° C.). The pancreatata were homogenised in 40 ml ice-cold HEPES buffer using a polytron (Brinkmann, PT10, setting 10) 4×1 second. The homogenate was centrifuged at 39,800 g for 15 min at 4° C. The supernatant was discarded and the pellet re-suspended using a Teflon-in-glass homogeniser in 20 volumes of fresh buffer and re-centrifuged as above. The final pellet was re-suspended using a Teflon-in-glass homogeniser to a tissue concentration of 1 mg.ml^−1 (original weight), and filtered through a 500 μm pore-size Nytex mesh.
The membranes (400 μl; containing 0.375 μM PD134,308) were incubated for 150 minutes at 21±3° C. in a final volume of 0.5 ml with HEPES buffer containing [^125I]-CCK8 (S) (50 μl; 200 pM) and competing compound. Total and non-specific binding of [^125I]-CCK8 (S) were defined using 50 μl of buffer and 50 μ of 100 nM L-364,718 respectively. The assay was terminated by rapid filtration through pre-soaked Whatman GF/B filters using a Brandell Cell Harvetser. The filters were washed (3×3 ml) with ice-cold 50 mM Tris HCl (pH 7.4 @ 4° C.) and bound radioactivity was determined by counting (1 min) in a gamma counter.

[3] = molecular target: T3, CCKB receptor (Mus musculus, UniProt P56481); experiment: CCKB receptor radioligand binding assay in mouse cortical membranes; settings: [125I]-CCK8(S) 200 pM, 150 min at 21±3°, read-out: CCKB pKi (converted)
T3 construct: The whole brains from male mice (CD1 22-25 g; Charles River) were removed; from tissue; host or cells: cerebral cortex membranes of male CD1 mice
T3 sequence (P56481 1-453): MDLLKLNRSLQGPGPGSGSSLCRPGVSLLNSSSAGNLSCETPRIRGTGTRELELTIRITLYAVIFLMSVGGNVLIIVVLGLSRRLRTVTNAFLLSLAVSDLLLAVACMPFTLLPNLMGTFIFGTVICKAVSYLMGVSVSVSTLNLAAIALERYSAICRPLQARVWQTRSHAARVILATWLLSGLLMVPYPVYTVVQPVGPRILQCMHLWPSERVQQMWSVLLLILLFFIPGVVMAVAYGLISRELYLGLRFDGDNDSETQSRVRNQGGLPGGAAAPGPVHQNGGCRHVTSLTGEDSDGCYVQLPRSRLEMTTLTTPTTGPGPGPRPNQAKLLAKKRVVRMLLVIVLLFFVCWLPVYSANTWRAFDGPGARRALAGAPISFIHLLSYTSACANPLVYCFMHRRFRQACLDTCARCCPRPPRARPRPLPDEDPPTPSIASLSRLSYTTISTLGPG
How it was run: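 Bound radioactivity was gamma-counted after rapid GF/B filtration and cold 50 mM Tris-HCl (pH 7.4) washes. The tissue was cerebral cortex from male CD1 mice, prepared as twice-centrifuged membranes in pH 7.2 HEPES/NaCl/KCl/MgCl2/EDTA buffer with bacitracin at 20 mg/ml original wet weight.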

Compound	Kb [1] [nM]	Ki [2] [nM]	Ki [3] [nM]
Cc1ccc(NC(=O)c2[nH]c(C3(C)CCCCC3)nc2CCC23CC4CC(CC(C4)C2)C3)cc1C(=O)O [Example 200, 5-{[5-(2-Adamantan-1-yl-ethyl)-2-(1-methyl-cyclohexyl)-1H-imidazole-4-carbonyl}-amino)-2-methyl-benzoic Acid]	0.891	251	3.8
O=C(O)c1cccc(NC(=O)c2nc([C@@H]3CC4C=C[C@H]3C4)[nH]c2COC23CC4CC(CC(C4)C2)C3)c1 [Example 236]	1.05	794	
Cc1cc(C)c(-c2nc(C(=O)Nc3ccc(C)c(C(=O)O)c3)c(CCC34CC5CC(CC(C5)C3)C4)[nH]2)c(C)c1 [Example 155, 5-{[5-(2-Adamantan-1-yl-ethyl)-2-(2,4,6-trimethyl-phenyl)-1H-imidazole-4-carbonyl]-amino}-2-methyl-benzoic Acid]	3.24	126	2.88
Cc1ccc(NC(=O)c2nc(C3CC4C=CC3C4)[nH]c2CCC23CC4CC(CC(C4)C2)C3)cc1C(=O)O (racemic) [Example 211, (±)-endo-5-{[5-(2-Adamantan-1-yl-ethyl)-2-bicyclo[2.2.1]hept-5-en-2-yl-1H-imidazole-4-carbonyl]-amino}-2-methyl-benzoic Acid]	2.57	100	2.29
O=C(O)c1cccc(NC(=O)c2[nH]c(C3CCCCC3)nc2CCC23CC4CC(CC(C4)C2)C3)c1 [Example 76, 3-{[5-(2-Adamantan-1-yl-ethyl)-2-cyclohexyl-1H-imidazole-4-carbonyl]-amino}-benzoic Acid]	4.9	631	25.1

Further lines, results first:

Kb [1] [nM]	Ki [2] [nM]	Ki [3] [nM]	Compound
0.871	501	12.6	O=C(O)c1cccc(NC(=O)c2nc(C3CCCCC3)[nH]c2COC23CC4CC(CC(C4)C2)C3)c1 [Example 216, 3-{[5-(Adamantan-1-yloxymethyl)-2-cyclohexyl-1H-imidazole-4-carbonyl]-amino}-benzoic Acid]
69.2	501		O=C(O)Cc1cccc(NC(=O)c2nc(C3CCCCC3)[nH]c2COC23CC4CC(CC(C4)C2)C3)c1 [Example 219, (3-{[5-(Adamantan-1-yloxymethyl)-2-cyclohexyl-1H-imidazole-4-carbonyl]-amino}-phenyl)-acetic Acid]
0.708	794		O=C(O)c1cccc(NC(=O)c2nc(C34CCC(CC3)CC4)[nH]c2COC23CC4CC(CC(C4)C2)C3)c1 [Example 221, 3-{[5-(Adamantan-1-yloxymethyl)-2-bicyclo[2.2.2]oct-1-yl-1H-imidazole-4-carbonyl]-amino}-benzoic Acid]
3.02	2510		O=C(O)c1cccc(NC(=O)c2nc([C@H]3CC4C=C[C@@H]3C4)[nH]c2COC23CC4CC(CC(C4)C2)C3)c1 [Example 235, endo-3-{[5-(Adamantan-1-yloxymethyl)-2-((1S,2S)-bicyclo[2.2.1]hept-5-en-2-yl)-1H-imidazole-4-carbonyl]-amino}-benzoic Acid]
18.2	631		O=C(O)Cc1cccc(NC(=O)c2nc(C34CCC(CC3)CC4)[nH]c2COC23CC4CC(CC(C4)C2)C3)c1 [Example 224, (3-{[5-(Adamantan-1-yloxymethyl)-2-bicyclo[2.2.2]oct-1-yl-1H-imidazole-4-carbonyl]-amino}-phenyl)-acetic Acid]
